Results published in patent US7186695B2 (priority 2001, dated 2007).
“Also recorded” adds a separate entry of the source. Read-outs that look alike come from different tables or passages of the source.

Assays:
BCE cells = test: Proliferation and viability of cultured cells, 72 hr, cell count; format: cell-based, bovine; details: for IC50: Bos taurus, 72 h, BCE
Description: FIG. 18. Inhibition of proliferation and reduction in viability of BCE cells by GSAO. 15,000 (part A and B) or 50,000 (part C and D) BCE cells per well were seeded into gelatinised 24-well culture plates and allowed to attach for 24 hr (part A, B and D) or 72 hr (part C). The media was then replaced with DMEM containing 5% BCS and 0 to 1 mM GSAO or GSM and either 1 ng per mL FGF-2 (part A) or 10 ng per mL VEGF (part B). In part D, the media was replaced with DMEM containing 5% BCS and 1 ng per mL FGF-2 and either 10 μM GSAO or GSM. In part C, the media was replaced with DMEM containing 5% BCS and 0 to 1 mM GSAO or GSAA. Cells were cultured for 72 hr in parts A, B and C or for discrete times up to 48 hr in part D and then dispersed and counted. The dotted line in parts A, B and C indicate the cell number in control wells containing DMEM and 5% BCS which represented no to limited proliferation. The dotted line in part D represents no change in cell number over the 48 hr. The data points and errors represent the mean and range of duplicate wells.
(§1) BCE (Folkman et al. 1979), BAE, BxPC-3 (ATCC, Bethesda, Md.), HT1080 (Jiang et al., 1999), 3T3 (ATCC, Bethesda, Md.) and BVSM (Hogg et al., 1997) cells were harvested and cultured as indicated. Cells (0.5 mL of 30,000 or 100,000 cells per mL) were seeded into gelatinized 24-well culture plates (Corning Costar, Corning, N.Y.) in Dulbecco's Modified Eagle's Medium (DMEM, JHR Bioscience, Lenexa, Kans.) containing 10% fetal calf serum (FCS, Intergen Comp., Purchase, N.Y.) and 1% Glutamine Pen-Strep (GPS, Irvine Scientific, Santa Ana, Va.) and allowed to attach for 24 hr in 10% CO2 at 37° C. The media was then replaced with DMEM and 1% GPS containing 0 to 1 mM GSAO or GSAA and either 5% bovine calf serum (BCS, HyClone, Logan, Utah) and 1 ng per mL FGF-2 (Genzyme, Cambridge, Mass.) or 5% BCS and 10 ng per mL VEGF (Genzyme, Cambridge, Mass.) for BCE cells, 5% or 10% BCS for BAE cells, 5% BCS for BVSM cells, and 5% FCS for BxPC-3, HT1080 and 3T3 cells. Cells were cultured for 0 to 72 hr in 10% CO2 at 37° C. then dispersed in trypsin/EDTA (GibcoBRL, Granc Island, N.Y.), resuspended in Coulter balanced electrolyte solution and counted with a Z1 Coulter counter (Coulter Corp., Miami, Fla.). In all experiments there were two control wells containing DMEM with 1% GPS and either 5% BCS for BCE cells, 2% BCS for BAE and BVSM cells, or 2% FCS for BxPC-3, HT1080 and 3T3 cells. These wells represented no to limited proliferation.

BxPC-3 cells = test: as above; format: cell-based, human
Description: (§2) FIG. 19. Effect of GSAO on Proliferation of non-endothelial cells. 15,000 BxPC-3 (part A), HT1080 (part B), 3T3 (part C) or BVSM (part D) cells per well were seeded into gelatinised 24-well culture plates and allowed to attach for 24 hr. The media was then replaced with DMEM containing 0 to 1 mM GSAO or GSAA and either 5% BCS (part D) or 5% FCS (parts A, B and C). Cells were cultured for 72 hr and then dispersed and counted. The dotted lines indicate the cell number in control wells containing DMEM and 2% BCS (part D) or 2% FCS (parts A, B and C) which represented no to limited proliferation. The data points and errors represent the mean and range of duplicate wells.
as §1

HT1080 cells = test: as above; format: cell-based, human
Description: as §2, §1

BVSM cells = test: as above; format: cell-based, bovine
Description: as §2, §1

3T3 fibroblasts = test: as above; format: cell-based, murine
Description: as §2, §1

[1] = tested on: chick chorioallantoic membrane (CAM) angiogenesis; test: Chick chorioallantoic membrane (CAM) angiogenesis assay; format: in vivo; details: 5, 10 or 50 μg per pellet, 48 hr
Description: FIG. 22. Inhibition of CAM angiogenesis by GSAO. Fertilised 3 day-old white Leghorn eggs were cracked, the embryos placed in petri dishes and incubated for 3 days. Methylcellulose discs containing 5, 10 or 50 μg of either GSAA or GSAO were then applied to the CAM of individual embryos and incubated for 48 hr. The CAMs were scored for no obvious effect or inhibition of angiogenesis as defined by avascular zones. Photographs of CAM's after incubation with discs containing 10 μg of either GSM (top) or GSAO (bottom) is shown in the left hand panel. The dotted circle indicates the placement of the disc.
The chick CAM assay has been used for the detection and analysis of angiogenesis inhibition (Nguyen et al., 1994). Fertilised 3 day-old white Leghorn eggs (Spafas, Norwich, Conn.) were cracked, the embryos with intact yolks placed in 20×100 mm petri dishes and incubated for 3 days at 37° C. and 3% CO2 (Folkman, 1995). Methylcellulose (Fisher Scientific, Fair Lawn, N.J.) discs containing 5, 10 or 50 μg of either GSAA or GSAO were then applied to the CAM of individual embryos and incubated for 48 hr at 37° C. and 3% CO2. The discs were made by desiccation of GSAA or GSAO in 10 μl of 0.45% methycellulose on teflon rods. The CAMs were observed using a stereomicroscope and scored for no obvious effect or inhibition of CAM angiogenesis as defined by avascular zones. On some occasions CAM blood vessels were injected with India ink and photographed.

N[C@@H](CCC(=O)N[C@@H](CSCC(=O)Nc1ccc([As](=O)(O)O)cc1)C(=O)NCC(=O)O)C(=O)O [GSAA, 4-(N-(S-glutathionylacetyl)amino)phenylarsonic acid, reference compound]
effect on viability of BCE cells (BCE cells; 0 to 1 mM): no significant effect
effect on proliferation of BCE cells (BCE cells; highest concentration used, 1 mM): only a marginal effect
effect on proliferation or viability (BxPC-3 cells; BxPC-3, up to a concentration of 1 mM): no significant effect
effect on proliferation or viability (HT1080 cells; HT1080, up to a concentration of 1 mM): no significant effect
effect on proliferation or viability (BVSM cells; up to a concentration of 1 mM): no significant effect
effect on proliferation or viability (3T3 fibroblasts; 3T3, up to a concentration of 1 mM): no significant effect
adverse effect on the wellbeing of the chick embryo [1]: Neither GSAA nor GSAO had any apparent adverse effect
inhibition of CAM angiogenesis (avascular zones) [1]: did not inhibit CAM angiogenesis
inhibition of CAM angiogenesis (avascular zones) ([1]; listed as GSM): no effects

NC(CCC(=O)NC(CSCC(=O)Nc1ccc([As]=O)cc1)C(=O)NCC(=O)O)C(=O)O (stereo not drawn) [GSAO, 4-(N-(S-glutathionylacetyl)amino)-phenylarsenoxide]
decrease in viability of BCE cells over time (BCE cells; 10 μM GSAO, after 8 hours): no decrease in viability
IC50 (BCE cells; 5% BCS + 1 ng/mL FGF-2, 72 hr, read-out: Proliferation IC50): ~0.1 µM
IC50 (BCE cells; 5% BCS + 1 ng/mL FGF-2, >90% confluent, 72 hr, read-out: Viability IC50): ~10 µM
IC50 (BCE cells; 5% BCS + 10 ng/mL VEGF, 72 hr, read-out: Proliferation IC50): ~0.05 µM
IC50 (BCE cells; 5% BCS + 10 ng/mL VEGF, >90% confluent, 72 hr, read-out: Viability IC50): ~3 µM
Proliferation IC50 (BxPC-3 cells; BxPc3, 5% FCS, 72 hr): did not affect the proliferation; also recorded: No effect
IC50 (BxPC-3 cells; Homo sapiens, BXPC-3, BxPc3, 5% FCS, 72 hr): ~40 µM
Proliferation IC50 (HT1080 cells; HT1080, 5% FCS, 72 hr): did not affect the proliferation; also recorded: No effect
IC50 (HT1080 cells; Homo sapiens, HT-1080, HT1080, 5% FCS, 72 hr): ~40 µM
Proliferation IC50 (BVSM cells; 5% BCS, 72 hr): did not affect the proliferation; also recorded: No effect
IC50 (BVSM cells; Bos taurus, 5% BCS, 72 hr): ~40 µM
Proliferation IC50 (3T3 fibroblasts; 3T3, 5% FCS, 72 hr): did not affect the proliferation; also recorded: No effect
IC50 (3T3 fibroblasts; Mus musculus, Fibroblast, 3T3, 5% FCS, 72 hr): ~40 µM
adverse effect on the wellbeing of the chick embryo [1]: Neither GSAA nor GSAO had any apparent adverse effect
inhibition of CAM angiogenesis (avascular zones) [1]: inhibited angiogenesis in the CAM in a concentration-dependent manner
